Source: patent publication US7723538B2, “Sulfonamides as L-CPT1 inhibitors” (Hoffmann-La Roche Inc., priority 2005, dated 2010)

What follows are molecules tested against T1, L-CPT1 (Homo sapiens, UniProt P50416) (assay: CPT activity spectrophotometric assay with DTNB (Ellman's reagent), cell-free extracts of P. pastoris expressing CPT1). Settings: carnitine 500 μM, palmitoyl-CoA 80 μM, DTNB 300 μM, absorbance at 410 nm, pH 7.4; read-out: L-CPT1 inhibition IC50.
T1 construct: made in house; host or cells: Pichia pastoris strain X-33 (pGAPZB/pGAPZA vector), crude cell-free extract
T1 sequence (P50416 1-773): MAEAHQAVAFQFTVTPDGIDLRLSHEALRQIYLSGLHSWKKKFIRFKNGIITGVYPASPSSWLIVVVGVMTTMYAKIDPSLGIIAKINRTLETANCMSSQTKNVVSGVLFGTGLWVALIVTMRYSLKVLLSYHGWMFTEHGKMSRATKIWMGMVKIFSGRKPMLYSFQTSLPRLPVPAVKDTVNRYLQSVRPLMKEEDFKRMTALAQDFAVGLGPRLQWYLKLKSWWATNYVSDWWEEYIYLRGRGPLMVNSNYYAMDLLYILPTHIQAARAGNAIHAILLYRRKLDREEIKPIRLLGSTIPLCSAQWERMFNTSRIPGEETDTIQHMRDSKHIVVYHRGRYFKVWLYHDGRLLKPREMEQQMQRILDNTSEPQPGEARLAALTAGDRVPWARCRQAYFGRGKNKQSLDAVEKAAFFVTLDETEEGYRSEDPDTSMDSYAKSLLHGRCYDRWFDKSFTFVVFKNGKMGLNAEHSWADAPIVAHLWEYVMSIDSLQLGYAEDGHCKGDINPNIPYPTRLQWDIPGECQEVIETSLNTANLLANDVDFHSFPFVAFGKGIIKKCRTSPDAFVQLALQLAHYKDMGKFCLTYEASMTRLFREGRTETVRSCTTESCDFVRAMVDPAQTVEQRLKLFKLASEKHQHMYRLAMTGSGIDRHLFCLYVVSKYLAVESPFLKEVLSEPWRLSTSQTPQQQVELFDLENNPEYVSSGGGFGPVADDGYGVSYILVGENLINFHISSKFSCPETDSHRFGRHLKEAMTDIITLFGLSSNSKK
Format: biochemical
Method: The following tests were carried out in order to determine the activity of the compounds of the present invention. Background information on the performed assays can be found in: Jackson et al., 1999, Biochem. J. 341, 483-489 and Jackson et al., 2000, J. Biol. Chem. 275, 19560-19566.
Human liver and muscle CPT1 cDNAs and rat CPT2 cDNA were subcloned in pGAPZB or pGAPZA, respectively. These plasmids were used to transform P. pastoris strain X-33 via electroporation after the preparation of electrocompetent cells. High copy number clones were selected where necessary using 0.5 or 1 mg/ml Zeocin. Cultures for activity measurements were induced for 16 h in YPD medium (1% yeast extract, 2% peptone, 2% glucose). Crude cell extracts were prepared by disrupting the cells with glass beads or French Press, depending on fermenter sizes. After centrifugation, the cell-free extracts were resuspended in cell breaking buffer (50 mM Tris, pH 7.4, 100 mM KCl, 1 mM EDTA) in the presence of a protease inhibitor cocktail, before aliquoting and freezing at −20° C.
CPT activity was measured using a spectrophotometric assay using 5,5′-dithio-bis-(2-nitrobenzoic acid) (DTNB) also called Ellman's reagent. The HS-CoA released on the formation of acylcarnitine from carnitine (500 μM) and palmitoyl-CoA (80 μM) reduced DTNB (300 μM) forming 5-mercapto-(2-nitrobenzoic acid) witch absorbed at 410 nm with a molar coefficient extinction of 13600 M^−1·cm^−1. The assay buffer contained 120 mM KCl, 25 mM Tris, pH 7.4, 1 mM EDTA. This assay was used for the identification of selective inhibitors of the liver CPT1 isoform versus the muscle CPT1 and CPT2 isoforms.

| IC50 | Structure (SMILES) |
| --- | --- |
| 192 nM | O=C(O)c1ccc(NC(=O)c2cccc(NS(=O)(=O)c3ccc(Cl)c(Cl)c3)c2)cc1 [Example 5, 4-[3-(3,4-Dichloro-benzenesulfonylamino)-benzoylamino]-benzoic acid] |
| 153 nM | O=C(O)c1ccc(NC(=O)c2ccc(Cl)c(NS(=O)(=O)c3cccc(Cl)c3)c2)cc1 [Example 21, 4-[4-Chloro-3-(3-chloro-benzenesulfonylamino)-benzoylamino]-benzoic acid] |
| 881 nM | COc1cc(C(=O)Nc2ccc(C(=O)O)cc2)cc(NS(=O)(=O)c2cc(Cl)cc(Cl)c2)c1OC [Example 32, 4-[3-(3,5-Dichloro-benzenesulfonylamino)-4,5-dimethoxy-benzoylamino]-benzoic acid] |
